In article PMC9518283 (Journal of Enzyme Inhibition and Medicinal Chemistry, 2022):

Key:
[1] = biological target: T1, hMAO-B (Homo sapiens, UniProt P27338); experiment: biochemical; conditions: residual enzyme activity; for % of MAO-B activity (1 µM): compound at 1 µM; for % of MAO-B activity (10 µM): compound at 10 µM
T1 construct: purchased Sigma-Aldrich (St. Louis, MO, USA)
T1 sequence (P27338 1-520): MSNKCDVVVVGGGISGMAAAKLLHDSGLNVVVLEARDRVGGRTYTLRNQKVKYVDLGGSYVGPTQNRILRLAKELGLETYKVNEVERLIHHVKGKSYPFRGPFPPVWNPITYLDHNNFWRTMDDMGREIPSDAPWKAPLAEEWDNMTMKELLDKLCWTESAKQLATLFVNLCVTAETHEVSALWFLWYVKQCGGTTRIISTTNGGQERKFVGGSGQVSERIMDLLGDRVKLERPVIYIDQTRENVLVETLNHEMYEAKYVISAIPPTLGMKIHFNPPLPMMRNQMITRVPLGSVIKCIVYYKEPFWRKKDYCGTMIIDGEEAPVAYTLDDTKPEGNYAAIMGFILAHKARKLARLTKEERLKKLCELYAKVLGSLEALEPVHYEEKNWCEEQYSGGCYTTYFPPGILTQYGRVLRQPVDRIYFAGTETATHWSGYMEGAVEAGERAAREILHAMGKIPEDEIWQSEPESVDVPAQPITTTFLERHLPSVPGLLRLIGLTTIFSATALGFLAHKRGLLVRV
Description: (§1) The hMAO-A and hMAO-B enzymes were purchased from Sigma-Aldrich (St. Louis, MO, USA). […] The mixture was pre-incubated at 37 °C for 5 min and subsequently substrate kynuramine was added to the final concentration of 60 µM in the case of hMAO-A and 30 µM in the case of hMAO-B. The final volume of reaction mixture was 0.1 mL. The whole reaction mixture was incubated at 37 °C for 30 min. The reaction was stopped by the addition of 200 µL acetonitrile/methanol mixture (ratio 1:1) and cooling down to 0 °C. […] Eluents: (A) 0.1% formic acid in water; (B) 0.1% formic acid in acetonitrile.

[2] = biological target: human butyrylcholinesterase (hBChE; EC 3.1.1.8) (Homo sapiens, UniProt P06276); experiment: biochemical; conditions: mean of at least three experiments; read-out: IC50 hBChE ± STD
Description: (§2) For that purpose, Ellman’s colorimetric assay was used[35].
(§3) The catalytic activity of both cholinesterases was determined by standard Ellman’s method adapted for 96-well plates. All tested inhibitors were freshly prepared in 50% DMSO/50% methanol at 10 mM concentration as stock solutions and then diluted in 0.1 M phosphate buffer, pH 7.4. […] The mixture was pre-incubated at 37 °C for 15 min and subsequently substrate (acetylthiocholine iodide or butyrylthiocholine iodide) was added to the final concentration of 1000 μM. The final volume of the reaction was 100 μL. The catalytic activity was evaluated as the amount of product (%) formed by enzyme after 10 min of incubation at 37 °C. The IC50 values from three independent experiments for each inhibitor concentration in triplicate were calculated using non-linear regression curve analysis in Prism version 7 Software (GraphPad Software Inc., San Diego, CA).

[3] = biological target: human AChE (hAChE; EC 3.1.1.7) (Homo sapiens, UniProt P22303); experiment: biochemical; conditions: for IC50: mean of at least three experiments, read-out: IC50 hAChE ± STD; for SI (hBChE/hAChE): ratio IC50(hBChE)/IC50(hAChE)
Description: as §2, §3

[4] = biological target: T2, hMAO-A (Homo sapiens, UniProt P21397); experiment: hMAO-A inhibition, kynuramine substrate, HPLC-MS; assay type: biochemical; conditions: residual enzyme activity; for % of MAO-A activity (1 µM): compound at 1 µM; for % of MAO-A activity (10 µM): compound at 10 µM
T2 construct: purchased Sigma-Aldrich (St. Louis, MO, USA)
T2 sequence (P21397 1-527): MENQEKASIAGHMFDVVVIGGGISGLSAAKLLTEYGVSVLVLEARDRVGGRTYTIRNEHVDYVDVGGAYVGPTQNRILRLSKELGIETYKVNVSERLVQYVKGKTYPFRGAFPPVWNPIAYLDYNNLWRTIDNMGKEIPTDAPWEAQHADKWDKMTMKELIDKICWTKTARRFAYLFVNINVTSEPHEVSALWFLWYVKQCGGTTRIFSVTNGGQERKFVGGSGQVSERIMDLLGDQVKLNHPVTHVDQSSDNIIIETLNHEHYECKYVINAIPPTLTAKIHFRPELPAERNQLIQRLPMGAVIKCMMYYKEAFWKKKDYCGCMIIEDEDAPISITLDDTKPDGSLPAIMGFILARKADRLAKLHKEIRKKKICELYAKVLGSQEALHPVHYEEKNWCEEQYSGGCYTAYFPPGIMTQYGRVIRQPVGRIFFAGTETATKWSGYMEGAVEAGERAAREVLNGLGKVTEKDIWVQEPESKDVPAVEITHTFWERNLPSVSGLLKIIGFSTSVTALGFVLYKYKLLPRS
Description: as §1

Sequence of human AChE (hAChE; EC 3.1.1.7) (P22303 32-614): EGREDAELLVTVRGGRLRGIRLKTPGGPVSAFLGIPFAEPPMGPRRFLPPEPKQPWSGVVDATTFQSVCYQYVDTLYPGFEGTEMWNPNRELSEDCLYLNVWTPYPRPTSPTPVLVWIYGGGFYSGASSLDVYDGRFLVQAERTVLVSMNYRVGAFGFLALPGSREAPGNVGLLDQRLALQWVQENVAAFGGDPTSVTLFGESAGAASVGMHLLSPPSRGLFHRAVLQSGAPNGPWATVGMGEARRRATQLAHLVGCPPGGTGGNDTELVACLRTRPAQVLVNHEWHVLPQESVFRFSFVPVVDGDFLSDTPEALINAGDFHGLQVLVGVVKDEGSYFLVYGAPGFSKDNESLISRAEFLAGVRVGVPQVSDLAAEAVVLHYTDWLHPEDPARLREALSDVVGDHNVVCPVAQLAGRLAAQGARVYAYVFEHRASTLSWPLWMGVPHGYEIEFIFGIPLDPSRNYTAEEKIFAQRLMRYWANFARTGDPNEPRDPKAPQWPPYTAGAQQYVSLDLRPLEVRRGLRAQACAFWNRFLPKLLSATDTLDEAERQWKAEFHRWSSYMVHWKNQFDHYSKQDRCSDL
Sequence of human butyrylcholinesterase (hBChE; EC 3.1.1.8) (P06276 29-602): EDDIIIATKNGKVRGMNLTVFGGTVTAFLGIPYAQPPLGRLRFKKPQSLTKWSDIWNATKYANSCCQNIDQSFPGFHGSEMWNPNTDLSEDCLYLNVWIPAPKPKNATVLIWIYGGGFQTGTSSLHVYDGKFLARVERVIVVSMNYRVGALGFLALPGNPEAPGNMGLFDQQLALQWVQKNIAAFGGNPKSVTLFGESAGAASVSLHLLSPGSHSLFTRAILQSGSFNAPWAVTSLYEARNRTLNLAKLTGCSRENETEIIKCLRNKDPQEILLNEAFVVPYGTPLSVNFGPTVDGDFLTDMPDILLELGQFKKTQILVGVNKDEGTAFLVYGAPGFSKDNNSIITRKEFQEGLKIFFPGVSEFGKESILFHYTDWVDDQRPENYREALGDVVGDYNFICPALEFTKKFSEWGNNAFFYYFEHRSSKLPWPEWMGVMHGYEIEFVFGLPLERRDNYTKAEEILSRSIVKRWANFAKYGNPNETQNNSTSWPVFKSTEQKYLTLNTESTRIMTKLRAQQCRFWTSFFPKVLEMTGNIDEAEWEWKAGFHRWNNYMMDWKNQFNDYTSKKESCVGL

| Compound | % of MAO-B activity (1 µM) [1] [%] | % of MAO-B activity (10 µM) [1] [%] | IC50 [2] [nM] | IC50 [3] [nM] | SI (hBChE/hAChE) [3] | % of MAO-A activity (1 µM) [4] [%] | % of MAO-A activity (10 µM) [4] [%] |
| --- | --- | --- | --- | --- | --- | --- | --- |
| C=CCN(CC=C)c1c2c(nc3ccccc13)CCCC2.Cl [Compound 1, N,N-Di(prop-2-en-1-yl)-1,2,3,4-tetrahydroacridin-9-amine hydrochloride] | 89 | 62 | 716 ± 35 | 493 ± 12 | 1.45 | 95 | 85 |
| C=CCNc1c2c(nc3ccccc13)CCCC2.Cl [Compound 2, N-(prop-2-en-1-yl)-1,2,3,4-tetrahydroacridin-9-amine hydrochloride] | 48 | 72 | 488 ± 19 | 303 ± 4 | 1.61 | 78 | 58 |
| C=CCNc1c2c(nc3cc(Cl)ccc13)CCCC2.Cl [Compound 3, 6-Chloro-N-(prop-2-en-1-yl)-1,2,3,4-tetrahydroacridin-9-amine hydrochloride] | 71 | 64 | 3220 ± 129 | 70 ± 1 |  | 76 | 73 |
| C=CCN(CC=C)c1c2c(nc3ccc(OC)cc13)CCCC2.Cl [Compound 4, 7-Methoxy-N,N-di(prop-2-en-1-yl)-1,2,3,4-tetrahydroacridin-9-amine hydrochloride] | 83 | 61 | 8760 ± 292 | 3690 ± 113 | 2.37 | 103 | 107 |
| C=CCNc1c2c(nc3ccc(OC)cc13)CCCC2.Cl [Compound 5, 7-Methoxy-N-(prop-2-en-1-yl)-1,2,3,4-tetrahydroacridin-9-amine hydrochloride] | 82 | 70 | 12500 ± 387 | 2270 ± 62 | 5.52 | 97 | 62 |
| C=CCN(CC=C)c1c2c(nc3ccc(Oc4ccccc4)cc13)CCCC2.Cl [Compound 6, 7-Phenoxy-N,N-di(prop-2-en-1-yl)-1,2,3,4-tetrahydroacridin-9-amine hydrochloride] | 16 | 4 | 13200 ± 408 | 9540 ± 138 | 1.38 | 76 | 78 |
| C#CCN(CC#C)c1c2c(nc3ccccc13)CCCC2.Cl [Compound 8, N,N-Di(prop-2-yn-1-yl)-1,2,3,4-tetrahydroacridin-9-amine hydrochloride] | 59 | 47 | 937 ± 43 | 186 ± 5 | 5.04 | 103 | 111 |
| C#CCN(CC#C)c1c2c(nc3cc(Cl)ccc13)CCCC2 [Compound 10] | 106 | 141 | 10900 ± 1020 | 105 ± 4 | 103.52 | 92 | 92 |
| C#CCN(CC#C)c1c2c(nc3ccc(OC)cc13)CCCC2.Cl [Compound 12, 7-Methoxy-N,N-di(prop-2-yn-1-yl)-1,2,3,4-tetrahydroacridin-9-amine hydrochloride] | 63 | 45 | 7970 ± 300 | 5120 ± 184 | 1.56 | 123 | 114 |
| C#CCNc1c2c(nc3ccc(OC)cc13)CCCC2.Cl [Compound 13, 7-Methoxy-N-(prop-2-yn-1-yl)-1,2,3,4-tetrahydroacridin-9-amine hydrochloride] | 74 | 62 | 3760 ± 210 | 1360 ± 39 | 2.75 | 96 | 82 |
| C#CCN(CC#C)c1c2c(nc3ccc(Oc4ccccc4)cc13)CCCC2.Cl [Compound 14, 7-Phenoxy-N,N-di(prop-2-yn-1-yl)-1,2,3,4-tetrahydroacridin-9-amine hydrochloride] | 73 | 14 | 12200 ± 713 | 2880 ± 84 | 4.23 | 93 | 47 |
| C#CCN(CC#C)CCCNc1c2c(nc3cc(Cl)ccc13)CCCC2.Cl.Cl [Compound 22, N'-(6-Chloro-1,2,3,4-tetrahydroacridin-9-yl)-N,N-di(prop-2-yn-1-yl)propane-1,3-diamine dihydrochloride] | 87 | 50 | 170 ± 13 | 61 ± 2 | 2.79 | 107 | 102 |
| C#CCN(CC#C)CCCNc1c2c(nc3ccc(OC)cc13)CCCC2.Cl.Cl [Compound 24, N-(7-Methoxy-1,2,3,4-tetrahydroacridin-9-yl)-N',N'-di(prop-2-yn-1-yl)-propane-1,3-diamine dihydrochloride] | 169 | 82 | 1040 ± 60 | 1950 ± 46 | 0.53 | 60 | 70 |
| C#CCNCCCNc1c2c(nc3ccc(Oc4ccccc4)cc13)CCCC2.Cl.Cl [Compound 26, N-(7-Phenoxy-1,2,3,4-tetrahydroacridin-9-yl)-N'-(prop-2-yn-1-yl)-propane-1,3-diamine dihydrochloride] | 14 | 4 | 1060 ± 62 | 1040 ± 40 | 1.02 | 88 | 79 |
| C=CCNc1ccnc2cc(Cl)ccc12.Cl [Compound 27, 7-Chloro-N-(prop-2-en-1-yl)quinolin-4-amine hydrochloride] | 150 | 127 | 66300 ± 2070 | 10700 ± 406 | 6.18 | 54 | 19 |
| C#CCNc1ccnc2cc(Cl)ccc12.Cl [Compound 28, 7-Chloro-N-(prop-2-yn-1-yl)quinolin-4-amine hydrochloride] | 150 | 61 |  | 8720 ± 242 |  | 39 | 31 |
